Test results published in patent publication US20240277632A1, “Epinephrine Pharmaceutical Formulations for Intranasal Delivery” (priority 2020, published 2024).

Experiments:
nasal mucosa of rats = test: Local toxicity study of STCDC, histopathology of nasal mucosa (Example 5); assay type: in vivo; settings: rat; after exposure to STCDC and epinephrine
Method: Example 5 is an animal study designed to investigate the possible histological effects of bile salts (STCDC) on nasal mucosa of rats when the bile salt is used as an absorption enhancer for IN delivery. […] These IN formulations were administered intranasally to the rats. The histopathology of the rat's nasal tissue was examined to evaluate nasal mucosa tolerance to these tested IN formulations.
In Table 5.1, Group Nos. 2-6 each had excipients of about 8.5 mg/mL sodium chloride, about 3.84 mg/mL citric acid, about 1.5 mg/mL sodium metabisulfite, about 2.3 mg/mL HCl (10% w/v), and a pH adjustor (NaOH) as needed to adjust the pH to 3.6. […]
In total, EPL assessed 48 types of microscopic findings in nasal turbinate cavity level I through IV, as detailed in Table 5.3. […]
In order to quantitatively analyze the data for histopathological findings, the three (3) quantities, (i) total observation point (TOP), denoted as TOP, (ii) Average TOP per item per rat, and (iii) average occurrence for Level i (AOL)-i (i=1-5) were analyzed.
where m1, m2, m3, m4, and m5 are number of findings with Level 1, 2, 3, 4, 5, respectively, from the 48 microscopic histopathological items (as detailed in Table 5.3) assessed by EPL, n is the number of rats examined.

[1] = human; cohort 1 (T2, T4a, Ra)
in vivo = settings: rat, in vivo
Method: (§1) Each rat was treated with two (2) IN administrations of the respective formulations in Groups A1-A5.
(§2) The analysis of clinical pathology was conducted by a qualified veterinary laboratory (Quality Veterinary Laboratory (QVL), Davis, California, USA).
(§3) Histopathological evaluation was conducted by a qualified pathology laboratory (Experimental Pathology Laboratories, Inc. (EPL), Sterling, Virginia, USA). […] EPL's histopathological findings were graded from 1 to 5, with 1 as minimal, and 5 as severe, depending upon severity.

rats = test: in vivo; settings: rats
Method: as §1, §2, §3

[2] = aqueous epinephrine by the IN route, no enhancer; cited from earlier work

## C[C@H](CCC(=O)NCCS(=O)(=O)[O-])[C@H]1CC[C@H]2C3[C@H](O)C[C@@H]4C[C@H](O)CC[C@]4(C)[C@H]3CC[C@]12C.[Na+] (stereo partly drawn) [STCDC, sodium taurochenodeoxycholate]
Nasal mucosa of rats
  course of observed nasal toxicity items over time (average TOP, FIG. 6D): nearly normal at two weeks post-dose

## C[C@H](CCC(=O)NCCS(=O)(=O)[O-])[C@H]1CC[C@H]2[C@@H]3[C@H](O)C[C@@H]4C[C@H](O)CC[C@]4(C)[C@H]3C[C@H](O)[C@]12C.[Na+] [STC, sodium taurocholate]
[1]
  baseline level of plasma STC: approximately 20 pg/mL
In vivo
  NOAEL: ≥ 2.5 mg/kg
rats; 15 mg/mL x 0.025 mL x 2, body weight 0.298 kg
  NOAEL for bile salt (STC) at an IN delivery, relative dose: 2.5 mg/kg
rats; IN administration, highest studied concentration
  NOAEL for the bile salt (STC), concentration: exceeding 15 mg/mL

## CNCC(O)c1ccc(O)c(O)c1 (single isomer, unassigned; (-)) [epinephrine, (-)-3,4-Dihy droxy-α-[(methyl-amino)methyl]benzyl alcohol]
[2]
  bioavailability (BA) based on AUC in plasma concentration, IN relative to same dose by IM route: approximately 5%
